Reference: patent US8455473B2, “Composition and method for irrigation of a prepared dental root canal” (The University of British Columbia, priority 2008, dated 2013)

Experiments:
[1] = test system: Enterococcus faecalis A197A; format: cell-based; details: all exposure times (5 seconds, 30 seconds, 3 minutes); detection level 99.995% killing
Experimental: The antibacterial activity of the composition was evaluated by exposing a planktonic culture (in suspension) of Enterococcus faecalis A197A, a resistant bacterial species often isolated from treatment resistant endodontic infections (root canal infections). In the evaluation, cultures were exposed for 5 seconds, 30 seconds, and 3 minutes. Detection level was at 99.995% killing.

[2] = test system: enterococci; details: saturated calcium hydroxide solution (pH≧12.5), in vitro; cited from earlier work
[3] = test system: yeasts; details: saturated calcium hydroxide solution (pH≧12.5), in vitro; cited from earlier work

Question: Which “survival of Enterococcus faecalis A197A (cfu %)” value [1] does the source give for `O=C(O)CN(CCN(CC(=O)O)CC(=O)O)CC(=O)O` [17% EDTA, ethylenediamine tetraacetic acid] here?
Answer: 100%

Question: What does the source list for `[Ca+2].[OH-].[OH-]` [calcium hydroxide, Calcium hydroxide]?
Answer: time to kill enterococci [2]: ≤ 20 min; time to kill yeasts [3]: ≤ 6 h
